According to PMC3760277 (Journal of neurovirology, 2013):
Like-named read-outs stand apart in the source and are kept apart here.

Legend:
[1] = Steady-state plasma pharmacokinetics; assay type: in vivo, HIV-infected patients (human); details: for AUC(0-t): AUC0–24, Visit 2 (day 21), ATV/RTV 300/100 mg once daily with CEP-1347 50 mg twice daily, arithmetic mean (SD), n=19
[2] = cited from earlier work
[3] = rats; background statement, ref not given; cited from earlier work
HIV-1 = test: Plasma viral load during the 21-day study; assay type: in vivo, HIV-infected patients (human); details: day 21, antiretroviral therapy (ATV/RTV + TDF/FTC) with concurrent CEP-1347 50 mg twice daily; baseline 3.80±3.70
[4] = monkeys; background statement, ref not given; cited from earlier work
[5] = Safety and tolerability in the clinical study; assay type: in vivo, HIV-infected patients (human); details: CEP-1347 50 mg twice daily for 20 days with ATV/RTV and TDF/FTC
[6] = CEP-1347 50 mg twice daily with ATV/r, day 21, mean (SD)

| AUC0–24 GMR (90 % CI) ([1]; human, in vivo) | Cmax GMR (90 % CI) ([1]; human, in vivo) | R GMR (90 % CI) ([1]; human, in vivo) | Tmax GMR (90 % CI) ([1]; human, in vivo) | Cmax ([1]; human, plasma, oral) [ng/mL] | half-life ([1]; human, plasma, oral) [h] | half-life ([1]; human, plasma, oral, 50 mg) [h] | AUC(0-t) ([1]; human, plasma, oral) [ng·h/mL] | Structure (SMILES) | Cmax ([1]; human, plasma, oral, 50 mg) [ng/mL] | Tmax ([1]; human, plasma, oral, 50 mg) [h] | also measured |
| --- | --- | --- | --- | --- | --- | --- | --- | --- | --- | --- | --- |
| 1.30 (0.92–1.85) | 1.14 (0.79–1.67) | 1.12 (1.05–1.20) | 0.86 (0.67–1.11) | 4000 | 12.7 | 15.9 | 49600 | COC(=O)N[C@H](C(=O)N[C@@H](Cc1ccccc1)[C@@H](O)CN(Cc1ccc(-c2ccccn2)cc1)NC(=O)[C@@H](NC(=O)OC)C(C)(C)C)C(C)(C)C [ATV, Atazanavir] | 4500 | 2 | Clss/F ([1]; Visit 1 (day 1), ATV/RTV before CEP-1347, mean (SD)): 12.0 (10.3) L/h; Clss/F ([1]; Visit 1 (day 1), ATV/RTV before CEP-1347, mean (SD), listed as atazanavir): 12.0 L/h; Clss/F ([1]; Visit 2 (day 21), ATV/RTV with CEP-1347 50 mg twice daily, mean (SD)): 9.3 (10.7) L/h; Clss/F GMR (90 % CI) ([1]; human, in vivo): 0.77 (0.54–1.09); increase in T1/2 ([1]; human, in vivo): 31%; increase in accumulation ratio (R) ([1]; human, in vivo): 15%; Tmax ([1]; human, plasma, oral): 2 h; clearance ([2]; population analysis, patients given ATV/r at 300/100 mg/day, ref Colombo et al. 2006): 12.9 L/h; clearance ([2]; previously reported in patients, ref Haberl et al. 2010): 8.5 L/h |
| 1.12 (0.90, 1.39) | 1.07 (0.85, 1.34) | 1.05 (0.94, 1.16) | 0.89 (0.79, 1.15) | 1400 | 5.9 | 5.8 | 13200 | CC(C)c1nc(CN(C)C(=O)N[C@H](C(=O)N[C@@H](Cc2ccccc2)C[C@H](O)[C@H](Cc2ccccc2)NC(=O)OCc2cncs2)C(C)C)cs1 [RTV, Ritonavir] |  |  | T1/2 GMR (90 % CI) ([1]; human, in vivo): 1.20 (0.92, 1.56) |

| Structure (SMILES) | AUC0–24 GMR (90 % CI) ([1]; human, in vivo) | Cmax GMR (90 % CI) ([1]; human, in vivo) | R GMR (90 % CI) ([1]; human, in vivo) | Tmax GMR (90 % CI) ([1]; human, in vivo) | Cmax ([1]; human, plasma, oral) [ng/mL] | half-life ([1]; human, plasma, oral) [h] | half-life ([1]; human, plasma, oral, 50 mg) [h] | AUC(0-t) ([1]; human, plasma, oral) [ng·h/mL] | Cmax ([1]; human, plasma, oral, 50 mg) [ng/mL] | Tmax ([1]; human, plasma, oral, 50 mg) [h] | also measured |
| --- | --- | --- | --- | --- | --- | --- | --- | --- | --- | --- | --- |
| CCSCc1ccc2c(c1)c1c3c(c4c5cc(CSCC)ccc5n5c4c1n2[C@H]1C[C@](O)(C(=O)OC)[C@]5(C)O1)CNC3=O [CEP-1347] |  |  |  |  |  |  | 35.2 |  | 427 | 3 | recovery of single oral doses in feces [3]: at least 95%; Clss/F [1, 6]: 22.3 (15.3) L/h; R (accumulation ratio) [1, 6]: 5.1 (1.5); AUC ([1]; human, plasma, oral, 50 mg): 2630 ng·h/mL; average plasma viral load (HIV-1): 2.41±2.03 log copies/mL; recovery of single oral doses in feces [4]: at least 95%; tolerability [5]: well tolerated |
